Reference: patent US20090060875A1, “HCV Vaccines for Chronic HCV Patients” (INTERCELL AG, priority 2004, published 2009)

Assays:
[1] = standard therapy, background; cited from earlier work
[2] = system: interferon gamma secreting T-cells (CD4+ Helper- and CD8+ cytotoxic T-cells); experiment: Interferon-gamma ELIspot assay in phase 2 study of chronic HCV patients; type: in vivo, human; settings: chronic HCV patients (FIG. 2)
Excerpt: (§1) In the present clinical study, each group consisted of 12 subjects, positive for HLA-A2. Subjects received 6 vaccinations in monthly intervals (at visits 3 to 8). Blood for immunological analyses was drawn prior vaccination and at visits 6 to 8, one month after last vaccination (visit 9), 3 months after last vaccination (visit 10) and 6 months after last vaccination (visit 11). For immunological monitoring of clinical trials, state-of-the-art T cell assays to determine immunological endpoints under GLP/GCP compliance were applied: Interferon-gamma ELIspot Assay, T cell Proliferation Assay, HLA-tetramer/FACS assay. These assays allow reliable measurements of epitope-specific T cell responses induced by the therapeutic HCV vaccine IC41. The vaccine-induced T cell immune responses serve as surrogate parameters of efficacy (Keilholz et al. 2002).
As secondary endpoints T-cell immunogenicity was determined by interferon gamma ELIspot. ELIspot allows quantification of peptide-specific, functional (i.e. cytokine-secreting) T cells in biological samples like human blood. The basis of the assay is that, T cells upon stimulation with a peptide specifically recognized by the T cell receptor react by secretion of cytokines like IFN-γ. […]
The filter-wells of this plate are coated with a Mab specific for IFN-γ. […] Spots can be counted using automated plate readers. […]

CD4+ Helper-T-cells = experiment: T-cell proliferation assay ([3H]-thymidine) in phase 2 study of chronic HCV patients; type: in vivo, human; settings: vaccinations at month 0-5, stimulation indices, median of 12 patients per group (FIG. 1), listed as poly-L-Arginine alone
Excerpt: as §1
As primary endpoint T-cell immunogenicity was determined by a T-cell proliferation assay. […] Proliferation of cells can be measured by a variety of means; among the most sensitive approaches ranks incorporation of radioactively labeled thymidine into DNA synthesized prior cell division. […] Cells are then harvested onto a filter plate: medium containing free radioactivity is washed away, whereas DNA sticks to the filter. Incorporated radioactivity can be quantified by means of a beta-scintillation counter determining counts-per-minute (cpm). […]

| Compound | Side effects [1] | Induction of interferon gamma secreting T-cells (type I T-cell response) [2] | CD4+ Helper-T-cell proliferation (induction of significant proliferative response) (CD4+ Helper-T-cells) |
| --- | --- | --- | --- |
| NC(=O)c1ncn([C@@H]2O[C@H](CO)[C@@H](O)[C@H]2O)n1 [Ribavirin, ribavirin] | teratogenic, mutagenic and carcinogenic potency | – | – |
| Poly-L-Arginine | – | cannot induce any response | not and neither peptides alone nor poly-L-Arginine alone have this ability |
